From US6448294B1, “Biphenyl compounds and their use as oestrogenic agents” (Aventis Pharma S.A., priority 1996, dated 2002)

Target: T1, recombinant human oestrogen receptor (Homo sapiens, UniProt P03372)
T1 construct: made in house; host or cells: SF9 insect cells (ATCC CRL1711), baculovirus
T1 sequence (P03372 1-595): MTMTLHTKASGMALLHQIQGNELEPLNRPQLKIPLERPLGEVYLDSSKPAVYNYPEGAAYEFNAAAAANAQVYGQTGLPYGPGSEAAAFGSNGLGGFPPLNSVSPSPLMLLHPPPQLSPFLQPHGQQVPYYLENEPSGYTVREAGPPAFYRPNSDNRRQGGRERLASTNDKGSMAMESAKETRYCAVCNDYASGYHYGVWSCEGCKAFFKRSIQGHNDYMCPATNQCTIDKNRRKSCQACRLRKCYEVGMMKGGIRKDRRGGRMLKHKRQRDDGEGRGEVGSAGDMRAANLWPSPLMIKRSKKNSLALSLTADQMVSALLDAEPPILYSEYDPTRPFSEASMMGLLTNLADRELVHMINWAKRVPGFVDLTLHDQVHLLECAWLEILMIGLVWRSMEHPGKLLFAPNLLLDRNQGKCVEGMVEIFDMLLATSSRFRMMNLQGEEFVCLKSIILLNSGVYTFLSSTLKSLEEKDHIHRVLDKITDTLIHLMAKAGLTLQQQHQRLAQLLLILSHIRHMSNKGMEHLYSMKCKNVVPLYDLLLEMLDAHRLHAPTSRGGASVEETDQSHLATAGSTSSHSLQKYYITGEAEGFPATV
Experiment: Human oestrogen receptor (HOR) competitive binding with tritiated oestradiol, relative bond affinity (RBA)
Conditions: RBA=100(CH)/(CX), incubation at 0° C. for 24 hours, cytosolic extract of SF9 cells
Text: A cytosolic extract of SF9 cells containing the recombinant human oestrogen receptor is obtained by overexpression in an insect-Baculovirus cell system, according to the general methodology described by N. R. WEBB et al. (Journal of Methods in Cell and Molecular Biology, (1990) Vol.2 No. 4, 173-188) and the application of which is described for the expression of human hormonal receptors, for example the human glucocorticoid receptor (G. SRINIVASAN et al. Molecular Endocrinology (1990) vol 4 No. 2 209-216).
The BaculoGold Transfection Kit (PharMingen, reference 21000K) is used to generate the recombinant baculovirus containing the cDNA fragment described in the expression vector HEGO by L. TORA et al. (The EMBO Journal (1989) vol. 8 No. 7 1981-1986), containing the region coding for the wild-type human oestrogen receptor with a glycine in position 400. […]
The supernatant is incubated at 0° C. for 24 hours with a constant concentration (T) of tritiated oestradiol in the presence of increasing concentrations of either unlabelled oestradiol (0-1000×10^−9M), or of unlabelled product to be tested (0-25000×10^−9M). The concentration of bound tritiated oestradiol (B) is then measured in each incubate by the technique of adsorption with carbon dextran. […]
The relative bond affinity (RBA) of the test product is calculated by the equation: RBA=100(CH)/(CX).

Relative bond affinity (RBA), HOR, oestradiol = 100, 24 hours	Structure (SMILES)
28	CN(C)CCOc1ccc(-c2c(-c3ccc(O)cc3)ccc3cc(O)ccc23)cc1 [Example 1, 5-[-4-[2-(Dimethylamino)ethoxy]phenyl] 6-(4-Hydroxyphenyl) 2-Naphthalenol]
49	Oc1ccc(-c2ccc3cc(O)ccc3c2Cl)cc1 [Example 2, 5-Chloro-6-(4-hydroxyphenyl)-2-naphthalenol]
